Experimental data as given in patent US10450260B2, “NO- and H2S-releasing compounds” (RESEARCH FOUNDATION OF THE CITY UNIVERSITY OF NEW YORK, priority 2011, dated 2019).

Each compound was assayed on HT-29 human colon cancer cells (assay: MTT cell growth inhibition, HT-29). Conditions: Homo sapiens; HT-29, 24 h (Table 5); in combinations the IC50 of ASA with fixed concentrations of SNAP and/or ADT-OH; read-out: IC50 at 24 hours for HT-29 cell growth inhibition.
Format: cell-based
Description: HT-29, SW-480 and HCT-15 human colon adenocarcinoma, MIA PaCa-2 and BxPC-3 human pancreatic cancer, LNCAP human prostate cancer, A549 human lung cancer, MCF-7 (estrogen receptor positive), MDA-MB 231 and SK-BR-3 (estrogen receptor negative) human breast cancer, and Jurkats human leukemia cell lines were obtained from American Type Tissue Collection (Manassas, Va.). All cells lines were grown as monolayers except for the Jurkats which were grown in suspension. The pancreatic and breast cancer cells were grown in Dulbecco's modified Eagle's medium, the prostate, Jurkat, SW-480 and HCT-15 colon cells were grown in RPMI 1640 medium, the lung cells were grown in F-12 and the colon HT-29 cells were grown in McCoy 5A. All media were supplemented with 10% fetal calf serum (Invitrogen, Carlsbad, Calif.) penicillin (50 U/ml), and streptomycin (50 μg/ml) (Invitrogen, Carlsbad, Calif.). Cells were seeded on culture dishes at a density of 25×10^3 cells/cm^2 and incubated at 37° C. in 5% CO2 and 90% relative humidity. Single cell suspensions were obtained by trypsinization (0.05% trypsin/EDTA), and cells were counted using a hemocytometer. Viability was determined by the trypan blue dye exclusion method.
Cell growth inhibitory effect of NOSH compounds were measured using a colorimetric MTT assay kit (Roche, Indianapolis, Ind.). Cancer cells were plated in 96-well plates at a density of 50,000 cells/well. The cells were incubated for 24 h with different concentrations of NOSH compounds. After the indicated time, 10 μl of MTT dye (3-[4,5-dimethylthiazol-2-yl]-2,5-diphenyl tetrazolium bromide, 5 mg/ml in phosphate buffered saline), was added to each well, and the plates were incubated for 2 hours at 37° C. Then, the media was aspirated, and add 100 μl of the solubilization solution (10% SDS in 0.01 M HCl) was added to each well to solubilize the formant crystals. The absorbance of the plates was measured on an ELISA reader at a wavelength of 570 nm. Each sample was performed in triplicate, and the entire experiment was repeated three times.
HT-29 human colon cancer cells were obtained from American Type Tissue Collection (Manassas, Va.) and grown as monolayer in McCoy 5A media that was supplemented with 10% fetal calf serum (Invitrogen, Carlsbad, Ca.), penicillin (50 U/ml), and streptomycin (50 μg/ml) (Invitrogen, Carlsbad, Calif.).
Growth inhibition was measured using a colorimetric MTT assay kit (Roche, Indianapolis, Ind.). Proliferation (PCNA) was assessed using an ELISA kit from Calbiochem, (La Jolla, Calif.). Cell cycle phase distributions and apoptosis of control and treated cells were determined as previously described. All methods are described in Chattopadhyay et al., Biochemical Pharmacology, 2012, 83(6), 715-722.
HT-29, SW-480 and HCT-15 human colon adenocarcinoma, MIA PaCa-2 and BxPC-3 human pancreatic cancer, LNCAP human prostate cancer, A549 and H383 human lung cancer, MCF-7, MDA-MB 231 and SK-BR-3 human breast cancer and Jurkat T cell human leukemia cell lines were obtained from American Type Tissue Collection (Manassas, Va.) All cells lines were grown as monolayers except for the Jurkat T cells which were grown as suspension culture. The pancreatic and breast cancer cells were grown in Dulbecco's modified Eagle's medium, the prostate, Jurkat, SW-480 and HCT-15 colon cells were grown in RPMI 1640 medium, the lung cells were grown in F-12 and the colon HT-29 cells were grown in McCoy 5A. All media were supplemented with 10% fetal calf serum (Invitrogen, Carlsbad, Calif.) penicillin (50 U/ml), and streptomycin (50 μg/ml) (Invitrogen, Carlsbad, Calif.). Cells were seeded on culture dishes at a density of 25×10^3 cells/cm^2 and incubated at 37° C. in 5% CO2 and 90% relative humidity. Single cell suspensions were obtained by trypsinization (0.05% trypsin/EDTA), and cells were counted using a hemacytometer. The final DMSO concentration was adjusted in all media to 1%. Viability was determined by the trypan blue dye exclusion method. […]

SMILES	IC50 [µM]
Oc1ccc(-c2cc(=S)ss2)cc1 [ADT-OH, 5-(4-hydroxyphenyl)-3H-1,2-dithiole-3-thione, reference compound]	26 ± 3
CC(=O)N[C@H](C(=O)O)C(C)(C)SN=O [SNAP, S-nitroso-N-acetyl-penicillamine, reference compound]	530 ± 45

Same assay, conditions: Homo sapiens; HT-29 colon cancer cells, 24 hours (Table 3); read-out: IC50 at 24 hours for cell growth inhibition

SMILES	IC50 [µM]
CC(=O)Oc1ccccc1C(=O)Oc1ccc(-c2cc(=S)ss2)cc1 [HS-ASA, 4-(5-thioxo-5H-1,2-dithiol-3-yl)-phenyl 2-acetoxybenzoate, reference compound]	4 ± 0.5
CC(=O)Oc1ccccc1C(=O)OCCCOO[N+](=O)[O-] [aliphatic-NO-ASA, 3-(nitroperoxy)propyl 2-acetoxybenzoate, reference compound]	750 ± 35
CC(=O)Oc1ccccc1C(=O)Oc1cccc(CO[N+](=O)[O-])c1 [m-NO-ASA, 2-(acetyloxy)benzoic acid 3-(nitrooxymethyl)phenyl ester, reference compound]	185 ± 15

Now from value to compound:

IC50 [µM]	SMILES
8 ± 3	CC(=O)Oc1ccccc1C(=O)Oc1ccccc1CO[N+](=O)[O-] [o-NO-ASA, 2-(acetyloxy)benzoic acid 2-(nitrooxymethyl)phenyl ester, reference compound]
10 ± 2	CC(=O)Oc1ccccc1C(=O)Oc1ccc(CO[N+](=O)[O-])cc1 [p-NO-ASA, 2-(acetyloxy)benzoic acid 4-(nitrooxymethyl)phenyl ester, reference compound]
